In patent publication US20220288091A1, “Method for Improving Insulin Sensitivity” (priority 2019, published 2022):

Columns and labels:
Assay type in all cases: in vivo, human
[1] = system: overweight or obese subjects with prediabetes or mild type 2 diabetes; assay: 75-g oral glucose tolerance test (OGTT); conditions: 50 mg every 6 hours for 9 days
Description: A randomized, placebo-controlled, double-blind crossover trial was conducted to evaluate the use of an anti-glucocorticoid as a means for ameliorating insulin resistance. Mifepristone, 50 mg, or a placebo, was administered every six hours for nine days to sixteen overweight or obese (BMI 25-37 kg/m^2) subjects (seven women). Participant ages ranged from 48 to 64 years. Ten had prediabetes and six had mild diabetes type II (HgbA1c less than 7%). Treatment of the glucose disorder with diet or a stable dose of metformin (used by two patients) was maintained for three (3) months before the study. The interventions were nine days of mifepristone or placebo treatment followed by a six (6) to eight (8) week wash out and cross over to the other arm. At baseline and at the end of each treatment period, parameters of insulin sensitivity were assessed by a frequently sampled intravenous glucose tolerance test (FSIVGTT) and an oral glucose tolerance test (OGTT). A whole body glucose disposal index of insulin sensitivity (SI) was derived using a minimal model analysis. Adipose tissue-SI, which reflects insulin-induced free fatty acid suppression, was estimated by the log-linear slope of free fatty acid levels and the AUC of insulin during the FSIVGTT. Matsuda index, oral glucose insulin sensitivity index (OGIS, ml/min/m^2), and hepatic insulin resistance index (HIRI, mg/dl×microU/ml×10^5) were derived from OGTT. Adipo-IR, a surrogate measure of adipocyte insulin resistance, was calculated by multiplying fasting concentrations of free fatty acids and insulin (mmol×pmol/L). Comparison of various post-treatment parameters was performed using crossover ANOVA. This analysis takes into account specific treatment arm, treatment order, and treatment effects. Thus, carryover effects were explicitly tested for in the crossover study.
On day 3 of baseline and post-treatment testing, subjects underwent a 75-gram OGTT. Serial blood draws for measurement of glucose, insulin and c-peptide were obtained at −5, 0, 30, 60, 90, 120, 150, and 180 minutes.
The Matsuda index and Oral Glucose Insulin Sensitivity Index (OGIS), surrogate indices of whole-body insulin sensitivity were derived from plasma glucose and insulin concentrations during the OGTT as previously described. Abdul-Ghani M A, et. al., Diabetes Care 2007; 30 (1): 89-94. HIRI was calculated as the product of the area under the curves of glucose and insulin for the first 30 minutes of the OGTT. Abdul-Ghani M A, ibid. The Adipo-IR index, a surrogate measure for fasting adipose adipose-tissue insulin resistance, was calculated as the product of fasting insulin and fasting FFA. Sondergaard E. et al., J. Clin. Endocrinol. Metab. 2017; 102(4):1193-9. A dynamic surrogate index of adipose tissue insulin sensitivity was assessed by calculating insulin's ability to suppress FFA levels during a FSIVGTT. Carpenter A. et al., Diabetes 2002; 51(6):1867-75 and Trottier A. et al. Fertil. Steril. […]; 98 (6):1627-34. The adipose tissue insulin sensitivity index was calculated as the ratio of the slope of the linear decrease in natural log transformed FFA [Ln (FFA) slope] during the first 90 minutes of the FSIVGTT and the AUC of insulin during that 90-minute period (AUCInsulin 0-90 min). Mathematical modeling of C-peptide concentrations was used to estimate insulin secretory rates and calculate β-cell responsivity parameters (basal (∅B); first-phase (∅1); second phase (∅2); and total (∅TOT) as previously described. Toffolo G. et al., Metabolism 1999; 48 (9):1162-6 and Cobelli C. et al. Am. J. Physiol. Endocrinol. Metab. 2007; 293 (1): E1-E5. Assuming an absence of hepatic C-peptide extraction, postprandial insulin clearance was calculated as the ratio of mean insulin secretion and insulin concentration. Trico D. et al. JCI Insight 2018; 3(24):e124912.

[2] = system: hypothalamic-pituitary-adrenal axis; assay: 24-hour profile of ACTH and cortisol
Description: To reduce potential variability associated with estrogen in premenopausal women, testing was performed in the early follicular phase (days 1-7 of menstrual cycle). Baseline height and weight were measured after an overnight fast. Subjects received an isocaloric regular diet during the inpatient part of the study, and those on metformin took the same dose throughout the study. Baseline testing took place took place over three inpatient days at the NIH Clinical Center, during which fasting blood was drawn, 24-hour urine was collected, 24-hour serial blood draws were obtained, and patients received both a […] (FSIVGTT) and a 75-g oral glucose tolerance test (OGTT). Subjects were then randomized to receive placebo or mifepristone for 9 days, of which the first 6 days the subjects returned home, and the final 3 days subjects underwent the same metabolic testing as during the baseline period. Subjects randomized to the mifepristone treatment arm were instructed to take one capsule (50 mg) every 6 hours (200 mg/day) over the course of 9 days. The placebo treatment arm received the same instructions to take one capsule every 6 hours over the course of the 9-day treatment period. Following the completion of the post-drug testing, subjects entered a 6-8 week washout period, after which they were crossed over to the other treatment arm, serving as their own controls for the study drug treatments.
Data shown are mean±SEM with p values provided for the effects of treatment group, time, and the treatment-time interaction, which was obtained with repeated-measures ANOVA with post-hoc Bonferroni's test. Tukey box and whisker plots show ACTH (B) and cortisol (D) area under the curve for the 24-hour period. Top and bottom box limits represent the 75th and 25th percentile, respectively; midlines represent the median, and top and bottom whiskers represent the 75th percentile plus 1.5 of the interquartile range (IQR) and the 25th percentile minus 1.5 IQR, respectively. Post-treatment values were adjusted for baseline and treatment group using mixed-model regression. P values indicate significance for comparisons between mifepristone and placebo.

[3] = Adverse events and safety laboratory monitoring; conditions: 50 mg every 6 hours for 9 days
Description: All subjects were instructed to record any adverse effects and to report them to study personnel, and women were advised to keep a record of any abnormal menstrual bleeding. For proper safety monitoring, subjects returned approximately one week (day 19) and three weeks (day 33) after the discontinuation of the study drug for both treatment arms. During this safety visit, serum electrolytes, renal and liver function, and complete blood count were measured, as well as evaluation and treatment for potential treatment-related abnormalities/adverse events.

[4] = 50 mg every 6 hours for 9 days, all subjects

## CC#C[C@]1(O)CC[C@H]2[C@@H]3CCC4=CC(=O)CCC4=C3[C@@H](c3ccc(N(C)C)cc3)C[C@@]21C [Mifepristone, 11beta-[p-(dimethylamino)phenyl]-17alpha-(1-propynl)estra-4,9-dien-17beta-ol-3-one]
[1]
  Insulin clearance during OGTT vs placebo: lower
[1]; 3-hr OGTT
  AUC for glucose during OGTT vs placebo: not statistically significant
  AUC for insulin during OGTT, lower compared to placebo: about 25%
[1]; AUC glucose × AUC insulin, first 30 min of OGTT, mean±SD, n=16
  Hepatic Insulin Resistance Index (HIRI): 50.2±38.7 mg/dl×microU/ml×10^5
[1]; C-peptide modeling
  Fasting insulin secretory rate (ISR) vs placebo: significantly lower
  ISR during OGTT vs placebo: not different
[1]; derived from OGTT
  Static, dynamic and total β-cell responsivity indices vs placebo: similar
[2]; [4]
  ACTH area under the curve (AUC), 24-hour: 574.5 ± 260.8 pg·min/mL
  Cortisol area under the curve (AUC), 24-hour: 255.4 ± 61.9 µg·min/dL
[2]; mifepristone arm, subgroup with higher 24-hr UFC
  Serum cortisol AUC, subjects with higher 24-hr UFC: 284.9 ± 39.9 µg·min/dL
[2]; mifepristone arm, subgroup with normal 24-hr UFC
  Serum cortisol AUC, subjects with normal 24-hr UFC: 229.8 ± 68.5 µg·min/dL
[3]
  Serious adverse events: No serious adverse events
